These results are taken from patent US12570617B2 (Kyungpook National University Industry-Academic Cooperation …, priority 2020, dated 2026).

For test [1], the target named is T1, ghrelin receptor (Homo sapiens, UniProt Q92847). The test can be described thus: Intracellular calcium influx in HEK293 cells overexpressing a ghrelin receptor. Type of test: cell-based. Set-up: host or cells: HEK293 (ATCC). As to conditions: read-out: EC50, concentration capable of inducing 50% intracellular calcium influx. On the procedure:
Human embryonic kidney 293 (HEK293) cells were purchased from ATCC and cultured in a DMEM medium comprising 10% FBS at 37° C. and in 5% CO2.
After treating the cells with 100 ul of a wash buffer, fluorescently labeled intracellular calcium was imaged at an excitation wavelength of 485 nm and an emission wavelength of 520 nm for 1 minute at a shutter interval of 10 seconds under a laser scanning confocal microscope equipped with a temperature and humidity control equipment. […] Intracellular calcium fluorescence intensity by treatment with compounds was quantified by calculating same based on the fluorescence intensity when not treated with compounds.
Target sequence in this assay (Q92847 whole entry): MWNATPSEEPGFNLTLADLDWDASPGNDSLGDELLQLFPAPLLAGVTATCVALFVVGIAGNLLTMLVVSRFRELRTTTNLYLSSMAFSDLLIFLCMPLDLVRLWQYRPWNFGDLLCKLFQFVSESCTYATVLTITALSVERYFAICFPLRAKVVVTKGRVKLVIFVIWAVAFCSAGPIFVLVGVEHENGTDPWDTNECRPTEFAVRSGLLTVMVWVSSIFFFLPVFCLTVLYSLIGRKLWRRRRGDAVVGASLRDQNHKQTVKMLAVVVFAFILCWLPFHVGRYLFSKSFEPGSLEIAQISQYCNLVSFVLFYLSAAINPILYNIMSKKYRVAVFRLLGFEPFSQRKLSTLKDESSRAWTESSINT

The test system of test [2] is postoperative ileus (POI) mouse model. The test can be described thus: Colon transit time of feces in postoperative ileus (POI) mouse model. As to conditions: POI mice; for colon transit time of feces: oral 30 mg/kg 4 hours after POI surgery; for colon transit time of feces / feed intake: vs PBS; for body weight / feed intake: 24 hours. Type of test: in vivo. The protocol:
(§1) Mice aged 6-8 weeks were fasted for one day and then anesthetized with a mixture of ketamine and xylazine. The abdomen and peritoneum were then incised, and the small intestine was exposed on a sterile gauze pad. Manipulation was performed from the duodenum to the cecum for 5 minutes by using a sterile cotton swab. After surgery, the abdomen was sutured and the mice were allowed to recover for 4 hours in a cage maintained at 32 degrees.
To evaluate the colon transit time of feces, 200 ul of trypan blue dye was injected into the proximal colon before suturing after POI surgery. A triazole compound (30 mg/kg) was orally administered 4 hours after POI surgery. The mouse was transferred to a metabolic cage, and the weighed feed was administered thereinto, and the time at which the first feces stained with trypan blue appeared was measured for 24 hours. At the 24th hour, the number and weight of feces were measured, and the weight of the consumed feed and the mouse's body weight were measured.

For test [3], the system named is cancer cachexia mouse model. The test can be described thus: Cancer cachexia mouse model (CT26): grip test, Rota-rod test, cancer size, body weight, feed intake, fat and muscle weight. It counts as in vivo. As to conditions: cancer cachexia mice; for body weight / cancer size / muscle mass / subcutaneous fat weight / total fat weight / visceral fat weight / daily feed intake: oral 10 mg/kg daily; for muscle mass / subcutaneous fat weight / total fat weight / visceral fat weight: 20th day. The protocol: Cultured 1×10^6 cells were subcutaneously injected into the right side of the abdomen of 10-week-old mice. The size of the cancer grown in the right abdomen, body weight, and feed intake were measured once every time after cell injection, and 10 mg/kg of a triazole compound was orally administered daily from the 9th day. On the 18th day of cancer cell injection, each of the grip test and Rota-rod test for evaluating the muscle function was performed for 1 day. On the 20th day, subcutaneous fat, visceral fat and muscle (femur, calf) of the mouse were separated and weighed.
For the evaluation of muscle function, the grip test was performed by holding the mouse by having the mouse hold the metal grid attached to the grip strength meter, holding the tail of the mouse, and pulling it from behind horizontally. The force applied to the metal grid immediately before losing the grip was recorded in the measuring instrument as the maximum tension in g, and the entire process was performed 9 times per subject to record the average value. In the Rota-rod test (Ugo Basile, Comerio, VA, Italy), Rota-rod exercise was performed at least three times at a rotational speed of 4 rpm by using a machine equipped with a rod with the diameter of 3 cm appropriately processed to provide grip to measure the endurance time of the tested animals in seconds and record the average value. Each Rota-rod behavior test was not to exceed 5 minutes per time.
A general note: In the rotarod test animals must keep their balance on a rotating rod.

In test [4] the test system is postoperative ileus (POI) mouse model. Kind of test: Delayed gastric emptying in postoperative ileus (POI) mouse model. It counts as in vivo. The following applies: POI mice, oral 10, 20, 30 mg/kg 20 hours after POI surgery. The protocol:
as §1
Triazole compounds (10 mg/kg, 20 mg/kg and 30 mg/kg) were orally administered 20 hours after POI surgery. […] After 30 minutes, the stomach of the mouse was removed and put into a 0.1N NaOH 2 ml solution to homogenize same. 3 ml of 0.1N NaOH solution was added and centrifuged at 3000 rpm at 4 degrees for 10 minutes. After adding […] of 20% trichloroacetic acid to the supernatant, the mixture was centrifuged at 3000 rpm at 4 degrees for 10 minutes. […] The percentage of the gastric emptying delay was calculated by (1−(absorbance of test sample)/(baseline control absorbance)×100.

The test system of test [5] is 170 G protein-coupled receptors. The test can be described thus: G protein coupled receptor agonist and antagonist analysis, panel of 170 receptors (Eurofins Discovery). Type of test: cell-based. Details: dose or concentration left out as unconfirmed. As to conditions: alone (agonist effect) or together with ligands for each receptor (antagonist effect). On the procedure:
(§2) The efficacy of triazole compounds […] as agonists and antagonists for a total of 170 types of G protein-coupled receptors was performed by Eurofins Discovery.
(§3) The family of G protein-coupled receptors comprises many types of receptors comprising a ghrelin receptor. It was checked whether or not the triazole compounds have efficacy as agonists or antagonists of different types of G protein-coupled receptors.

The target in test [6] is T1, ghrelin receptor. Kind of test: G protein coupled receptor agonist analysis (Eurofins Discovery), ghrelin receptor. The following applies: compound alone (agonist effect). It counts as cell-based. Details: Eurofins Discovery; dose or concentration left out as unconfirmed. The protocol: as §2, §3
Target sequence in this assay (Q92847 whole entry, species assumed): as the sequence (Q92847 whole entry) above

Structures are written as SMILES.

As for `CCCCCCCCCCCCn1cc(C(N)(CO)CO)nn1` [KARI001, 2-amino-2-(1-dodecyl-1H-1,2,3-triazol-4-yl)propane-1,3-diol], at ghrelin receptor [1], the EC50 worked out at 128 nM.
Consider `CCCCCCCCCCn1cc(C(N)(CO)CO)nn1` [KARI101, 2-amino-2-(1-decyl-1H-1,2,3-triazol-4-yl) propane-1,3-diol], for which the “colon transit time of feces” value in test [2] is given as “significantly reduced”. In addition, in test [2] (oral 30 mg/kg), the body weight entry is “no change” and the feed intake entry is “increased”. Also, the EC50 at ghrelin receptor [1] was 189 nM. In test [3], the body weight entry is given as “did not affect” and the cancer size entry is on record as “did not affect”. In test [3] (vs Vehicle), the muscle mass entry is given as “increased”, the subcutaneous fat weight result is “increased”, the total fat weight result was “increased” and the visceral fat weight entry is listed as “increased”. The daily feed intake result in test [3] (vs Vehicle) is reported as “increased”. In test [3] (oral 10 mg/kg once daily from 9th day, tested 18th day, vs Vehicle), the “muscle strength function (Grip test and Rota-rod test)” value is listed as “significantly improved”. The delayed gastric emptying entry in test [4] is on record as “significant improvement”.
As to `CCCCCCCCCn1cc(C(N)(CO)CO)nn1` [KARI201, 2-amino-2-(1-nonyl-1H-1,2,3-triazol-4-yl)propane-1,3-diol], the “colon transit time of feces” value in test [2] was “significantly reduced”. In test [2] (oral 30 mg/kg), the body weight entry is “no change” and the feed intake entry is on record as “increased”. In test [2] (oral 30 mg/kg, at the 24th hour), the “number and weight of feces” value is “increased”. The “specificity among 170 G protein-coupled receptors (agonist or antagonist efficacy)” value in test [5] is reported as “ghrelin receptor-specific agonist”. In test [3], the body weight result is “did not affect” and the cancer size result is listed as “did not affect”. Moreover, in test [3] (vs Vehicle), the muscle mass result is given as “increased”, the subcutaneous fat weight entry is on record as “increased”, the total fat weight entry is “increased” and the visceral fat weight result was “increased”. In addition, in test [3] (vs Vehicle), the daily feed intake result is given as “increased”. For the same compound, the delayed gastric emptying result in test [4] is “significant improvement”. For the same compound, the “efficacy as a ghrelin receptor agonist” value at ghrelin receptor [6] came out at 83.7%.
